# Assay results: ChEMBL document CHEMBL4270599, “Synthesis of a 3'-C-ethynyl-β-d-ribofuranose purine nucleoside library: Discovery of C7-deazapurine analogs as potent antiproliferative nucleosides” (Eur J Med Chem, 2018)
# Key:
# Assay type in all cases: functional
# [1] = system: K562; assay: Cytotoxicity against human K562 cells after 48 hrs by SRB assay; conditions: K562, 48 h
# [2] = system: OVCAR-4; assay: Growth inhibition of human OVCAR4 cells assessed as cell growth at 10^-5 M incubated for 48 hrs by sulforhodamine B assay relative to control; conditions: OVCAR-4, 48 h, read-out: Activity
# [3] = system: ACHN; assay: Growth inhibition of human ACHN cells assessed as cell growth at 10^-5 M incubated for 48 hrs by sulforhodamine B assay relative to control; conditions: read-out: Activity
# [4] = system: ACHN; assay: Growth inhibition of human ACHN cells assessed as cell growth at 10^-4 M incubated for 48 hrs by sulforhodamine B assay relative to control; conditions: read-out: Activity
# [5] = system: NCI-H226; assay: Growth inhibition of human NCI-H226 cells assessed as cell growth at 10^-5 M incubated for 48 hrs by sulforhodamine B assay relative to control; conditions: NCI-H226, 48 h, read-out: Activity
# [6] = system: EKVX; assay: Growth inhibition of human EKVX cells assessed as cell growth at 10^-7 M incubated for 48 hrs by sulforhodamine B assay relative to control; conditions: read-out: Activity
# [7] = system: HCC 2998; assay: Growth inhibition of human HCC2998 cells assessed as cell growth at 10^-8 M incubated for 48 hrs by sulforhodamine B assay relative to control; conditions: HCC 2998, 48 h, read-out: Activity
# [8] = system: RXF 393; assay: Growth inhibition of human RXF393 cells assessed as cell growth at 10^-7 M incubated for 48 hrs by sulforhodamine B assay relative to control; conditions: RXF 393, 48 h, read-out: Activity
# [9] = system: SF-268; assay: Growth inhibition of human SF268 cells assessed as cell growth at 10^-7 M incubated for 48 hrs by sulforhodamine B assay relative to control; conditions: SF-268, 48 h, read-out: Activity
# [10] = system: SK-MEL-28; assay: Growth inhibition of human SK-MEL-28 cells assessed as cell growth at 10^-7 M incubated for 48 hrs by sulforhodamine B assay relative to control; conditions: SK-MEL-28, 48 h, read-out: Activity
# [11] = system: MOLT-4; assay: Cytotoxicity against human MOLT4 cells after 48 hrs by SRB assay; conditions: MOLT-4, 48 h
# [12] = system: OVCAR-4; assay: Growth inhibition of human OVCAR4 cells assessed as cell growth at 10^-7 M incubated for 48 hrs by sulforhodamine B assay relative to control; conditions: OVCAR-4, 48 h, read-out: Activity
# [13] = system: IGROV-1; assay: Growth inhibition of human IGROV1 cells assessed as cell growth at 10^-7 M incubated for 48 hrs by sulforhodamine B assay relative to control; conditions: IGROV-1, 48 h, read-out: Activity
# [14] = system: UACC-62; assay: Growth inhibition of human UACC62 cells assessed as cell growth at 10^-7 M incubated for 48 hrs by sulforhodamine B assay relative to control; conditions: UACC-62, 48 h, read-out: Activity
# [15] = system: Hs-578T; assay: Growth inhibition of human Hs 578T cells assessed as cell growth at 10^-8 M incubated for 48 hrs by sulforhodamine B assay relative to control; conditions: read-out: Activity
# [16] = system: ACHN; assay: Growth inhibition of human ACHN cells assessed as cell growth at 10^-8 M incubated for 48 hrs by sulforhodamine B assay relative to control; conditions: read-out: Activity
# [17] = system: SR; assay: Growth inhibition of human SR cells assessed as cell growth at 10^-4 M incubated for 48 hrs by sulforhodamine B assay relative to control; conditions: read-out: Activity
# [18] = system: SR; assay: Growth inhibition of human SR cells assessed as cell growth at 10^-6 M incubated for 48 hrs by sulforhodamine B assay relative to control; conditions: read-out: Activity
# [19] = system: K562; assay: Growth inhibition of human K562 cells assessed as cell growth at 10^-6 M incubated for 48 hrs by sulforhodamine B assay relative to control; conditions: K562, 48 h, read-out: Activity
# [20] = system: EKVX; assay: Growth inhibition of human EKVX cells assessed as cell growth at 10^-8 M incubated for 48 hrs by sulforhodamine B assay relative to control; conditions: read-out: Activity
# [21] = system: MCF7; assay: Growth inhibition of human MCF7 cells assessed as cell growth at 10^-6 M incubated for 48 hrs by sulforhodamine B assay relative to control; conditions: MCF7, 48 h, read-out: Activity
# [22] = system: MOLT-4; assay: Growth inhibition of human MOLT4 cells assessed as cell growth at 10^-7 M incubated for 48 hrs by sulforhodamine B assay relative to control; conditions: MOLT-4, 48 h, read-out: Activity
# [23] = system: MDA-MB-231; assay: Growth inhibition of human MDA-MB-231 cells assessed as cell growth at 10^-8 M incubated for 48 hrs by sulforhodamine B assay relative to control; conditions: MDA-MB-231, 48 h, read-out: Activity
# [24] = system: BT-549; assay: Growth inhibition of human BT549 cells assessed as cell growth at 10^-8 M incubated for 48 hrs by sulforhodamine B assay relative to control; conditions: BT-549, 48 h, read-out: Activity
# [25] = system: NCI-H226; assay: Growth inhibition of human NCI-H226 cells assessed as cell growth at 10^-6 M incubated for 48 hrs by sulforhodamine B assay relative to control; conditions: NCI-H226, 48 h, read-out: Activity
# [26] = system: DU-145; assay: Growth inhibition of human DU145 cells assessed as cell growth at 10^-6 M incubated for 48 hrs by sulforhodamine B assay relative to control; conditions: DU-145, 48 h, read-out: Activity
# [27] = system: COLO 205; assay: Cytotoxicity against human COLO205 cells after 48 hrs by SRB assay; conditions: COLO 205, 48 h
# [28] = system: NCI-H23; assay: Growth inhibition of human NCI-H23 cells assessed as cell growth at 10^-7 M incubated for 48 hrs by sulforhodamine B assay relative to control; conditions: NCI-H23, 48 h, read-out: Activity
# [29] = system: SR; assay: Growth inhibition of human SR cells assessed as cell growth at 10^-7 M incubated for 48 hrs by sulforhodamine B assay relative to control; conditions: read-out: Activity
# [30] = system: K562; assay: Growth inhibition of human K562 cells assessed as cell growth at 10^-5 M incubated for 48 hrs by sulforhodamine B assay relative to control; conditions: K562, 48 h, read-out: Activity
# [31] = system: BT-549; assay: Cytotoxicity against human BT549 cells after 48 hrs by SRB assay; conditions: BT-549, 48 h
# [32] = system: OVCAR-5; assay: Growth inhibition of human OVCAR5 cells assessed as cell growth at 10^-4 M incubated for 48 hrs by sulforhodamine B assay relative to control; conditions: OVCAR-5, 48 h, read-out: Activity
# [33] = system: DU-145; assay: Growth inhibition of human DU145 cells assessed as cell growth at 10^-8 M incubated for 48 hrs by sulforhodamine B assay relative to control; conditions: DU-145, 48 h, read-out: Activity
# [34] = system: SW-620; assay: Cytotoxicity against human SW620 cells after 48 hrs by SRB assay; conditions: SW-620, 48 h
# [35] = read-out: LC50 (the source's name)
# [36] = read-out: pLC50 (the source's name) (converted)
smiles,measurement,setting,value
C#C[C@@]1(O)[C@@H](CO)O[C@@H](n2ccc3c(N)ncnc32)[C@@H]1O,CC50,[1]; [35],> 100 µM
same,TGI,[1]; read-out: TGI,> 100 µM
same,GI50,[1]; read-out: pGI50 (converted),0.813 µM
same,TGI,[1]; read-out: pTGI,> 100 µM
same,growth at 10 µM,[2],-9%
same,growth at 10 µM,[3],-18%
same,growth at 100 µM,[4],-24%
same,growth at 10 µM,[5],-42%
same,growth at 0.1 µM,[6],92%
same,growth at 0.01 µM,[7],99%
same,growth at 0.1 µM,[8],111%
same,growth at 0.1 µM,[9],95%
same,growth at 0.1 µM,[10],97%
same,CC50,[11]; [35],> 100 µM
same,TGI,[11]; read-out: TGI,> 100 µM
same,GI50,[11]; read-out: pGI50 (converted),0.617 µM
same,TGI,[11]; read-out: pTGI (converted),> 100 µM
same,growth at 0.1 µM,[12],97%
same,growth at 0.1 µM,[13],100%
same,growth at 0.1 µM,[14],101%
same,growth at 0.01 µM,[15],97%
same,growth at 0.01 µM,[16],97%
same,growth at 100 µM,[17],11%
same,growth at 1 µM,[18],46%
same,growth at 1 µM,[19],46%
same,growth at 0.01 µM,[20],87%
same,growth at 1 µM,[21],13%
same,growth at 0.1 µM,[22],95%
same,growth at 0.01 µM,[23],104%
same,growth at 0.01 µM,[24],89%
same,growth at 1 µM,[25],92%
same,growth at 1 µM,[26],34%
same,TGI,[27]; read-out: TGI,2.67 µM
same,GI50,[27]; read-out: pGI50 (converted),0.676 µM
same,CC50,[27]; [36],8.91 µM
same,TGI,[27]; read-out: pTGI (converted),2.69 µM
same,growth at 0.1 µM,[28],93%
same,growth at 0.1 µM,[29],96%
same,growth at 10 µM,[30],6%
same,TGI,[31]; read-out: TGI,3.64 µM
same,GI50,[31]; read-out: pGI50 (converted),1.62 µM
same,CC50,[31]; [36],8.13 µM
same,TGI,[31]; read-out: pTGI (converted),3.63 µM
same,growth at 100 µM,[32],-31%
same,growth at 0.01 µM,[33],103%
same,TGI,[34]; read-out: TGI,12.7 µM
same,GI50,[34]; read-out: pGI50 (converted),0.49 µM
same,CC50,[34]; [36],> 100 µM
same,TGI,[34]; read-out: pTGI (converted),12.6 µM
